Values joined by “and” are separate entries in the source; they are usually repeats but may differ in a detail not shown here. Equal entries are not always repeated.
How the values were obtained:
Assay in all cases: KINATIV assay
Type in all cases: cell-based
MAST1, MAST2 = conditions: 1 μM, 90 minutes, BCWM.1 cells
Method: (§1) The cells were harvested and lysed. The lysates were directly labeled with an ATP-biotin probe. Bound kinases were identified and quantitated by ACTIVX as described in Patricelli et al., Biochemistry, 2007, 46(2): 350-358. The compounds were tested in duplicates against duplicate or quadruplicate control samples.

CSK = CSK (Homo sapiens (Human), UniProt P41240); conditions: 1 μM, 90 minutes, BCWM.1 cells
Method: as §1

TEC = TEC (Homo sapiens (Human), UniProt P42680); conditions: 1 μM, 90 minutes, BCWM.1 cells
Method: as §1

BTK = BTK (Homo sapiens (Human), UniProt Q06187); conditions: 1 μM, 90 minutes, BCWM.1 cells
Method: as §1

PKD2 = PKD2 (Homo sapiens (Human), UniProt Q9BZL6); conditions: 1 μM, 90 minutes, BCWM.1 cells
Method: as §1

AurB = AurB (Homo sapiens (Human), UniProt Q96GD4); conditions: 1 μM, 90 minutes, BCWM.1 cells
Method: as §1

SRPK1 = SRPK1 (Homo sapiens (Human), UniProt Q96SB4); conditions: 1 μM, 90 minutes, BCWM.1 cells
Method: as §1

CDK9 = CDK9 (Homo sapiens (Human), UniProt P50750); conditions: 1 μM, 90 minutes, BCWM.1 cells
Method: as §1

MAST3 = MAST3 (Homo sapiens (Human), UniProt O60307); conditions: 1 μM, 90 minutes, BCWM.1 cells
Method: as §1

MST2 = MST2 (Homo sapiens (Human), UniProt Q13188); conditions: 1 μM, 90 minutes, BCWM.1 cells
Method: as §1

PI4KB = PI4KB (Homo sapiens (Human), UniProt Q9UBF8); conditions: 1 μM, 90 minutes, BCWM.1 cells
Method: as §1

NEK6, NEK7 = conditions: 1 μM, 90 minutes, BCWM.1 cells
Method: as §1

LRRK2 = LRRK2 (Homo sapiens (Human), UniProt Q5S007); conditions: 1 μM, 90 minutes, BCWM.1 cells
Method: as §1

CK2a1 = CK2a1 (Homo sapiens (Human), UniProt P68400); conditions: 1 μM, 90 minutes, BCWM.1 cells
Method: as §1

CaMK2g = CaMK2g (Homo sapiens (Human), UniProt Q13555); conditions: 1 μM, 90 minutes, BCWM.1 cells
Method: as §1

TAK1 = TAK1 (Homo sapiens (Human), UniProt O43318); conditions: 1 μM, 90 minutes, BCWM.1 cells
Method: as §1

MAP2K7 = MAP2K7 (Homo sapiens (Human), UniProt O14733); conditions: 1 μM, 90 minutes, BCWM.1 cells
Method: as §1

YSK1 = YSK1 (Homo sapiens (Human), UniProt O00506); conditions: 1 μM, 90 minutes, BCWM.1 cells
Method: as §1

RSK3 = RSK3 (Homo sapiens (Human), UniProt Q15349); conditions: 1 μM, 90 minutes, BCWM.1 cells
Method: as §1

ATR = ATR (Homo sapiens (Human), UniProt Q13535); conditions: 1 μM, 90 minutes, BCWM.1 cells
Method: as §1

MARK3, MARK4 = conditions: 1 μM, 90 minutes, BCWM.1 cells
Method: as §1

PIK3CG = PIK3CG (Homo sapiens (Human), UniProt P48736); conditions: 1 μM, 90 minutes, BCWM.1 cells
Method: as §1

NEK7 = NEK7 (Homo sapiens (Human), UniProt Q8TDX7); conditions: 1 μM, 90 minutes, BCWM.1 cells
Method: as §1

SRPK1, SRPK2 = conditions: 1 μM, 90 minutes, BCWM.1 cells
Method: as §1

BRAF = BRAF (Homo sapiens (Human), UniProt P15056); conditions: 1 μM, 90 minutes, BCWM.1 cells
Method: as §1

GSK3B = GSK3B (Homo sapiens (Human), UniProt P49841)
Method: as §1

CaMK1d = CaMK1d (Homo sapiens (Human), UniProt Q8IU85); conditions: 1 μM, 90 minutes, BCWM.1 cells
Method: as §1

RSK4 domain1 = RSK4 domain1 (Homo sapiens (Human), UniProt Q9UK32); conditions: 1 μM, 90 minutes, BCWM.1 cells
Method: as §1

Wnk1, Wnk2, Wnk4 = conditions: 1 μM, 90 minutes, BCWM.1 cells
Method: as §1

MAP3K6 = MAP3K6 (Homo sapiens (Human), UniProt O95382); conditions: 1 μM, 90 minutes, BCWM.1 cells
Method: as §1

CK2a2 = CK2a2 (Homo sapiens (Human), UniProt P19784); conditions: 1 μM, 90 minutes, BCWM.1 cells
Method: as §1

TYK2 domain2 = TYK2 domain2 (Homo sapiens (Human), UniProt P29597); conditions: 1 μM, 90 minutes, BCWM.1 cells
Method: as §1

LCK = LCK (Homo sapiens (Human), UniProt P06239); conditions: 1 μM, 90 minutes, BCWM.1 cells
Method: as §1

TLK2 = TLK2 (Homo sapiens (Human), UniProt Q86UE8); conditions: 1 μM, 90 minutes, BCWM.1 cells
Method: as §1

STLK5 = STLK5 (Homo sapiens (Human), UniProt Q7RTN6); conditions: 1 μM, 90 minutes, BCWM.1 cells
Method: as §1

NLK = NLK (Homo sapiens (Human), UniProt Q9UBE8); conditions: 1 μM, 90 minutes, BCWM.1 cells
Method: as §1

MARK2 = MARK2 (Homo sapiens (Human), UniProt Q7KZI7); conditions: 1 μM, 90 minutes, BCWM.1 cells
Method: as §1

NEK1 = NEK1 (Homo sapiens (Human), UniProt Q96PY6); conditions: 1 μM, 90 minutes, BCWM.1 cells
Method: as §1

MELK = MELK (Homo sapiens (Human), UniProt Q14680); conditions: 1 μM, 90 minutes, BCWM.1 cells
Method: as §1

Chain of CaMK1d (Q8IU85 whole entry): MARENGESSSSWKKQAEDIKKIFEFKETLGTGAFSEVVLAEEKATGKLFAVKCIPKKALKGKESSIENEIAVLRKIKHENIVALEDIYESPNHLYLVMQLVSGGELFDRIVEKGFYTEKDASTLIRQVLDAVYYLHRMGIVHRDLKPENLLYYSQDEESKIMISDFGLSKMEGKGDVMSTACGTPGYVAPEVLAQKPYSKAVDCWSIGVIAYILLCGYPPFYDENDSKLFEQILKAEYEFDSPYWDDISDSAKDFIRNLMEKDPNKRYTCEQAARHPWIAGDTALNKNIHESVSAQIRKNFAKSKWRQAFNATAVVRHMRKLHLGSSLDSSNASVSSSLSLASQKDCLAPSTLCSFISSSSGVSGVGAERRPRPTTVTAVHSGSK
Chain of CSK (P41240 whole entry): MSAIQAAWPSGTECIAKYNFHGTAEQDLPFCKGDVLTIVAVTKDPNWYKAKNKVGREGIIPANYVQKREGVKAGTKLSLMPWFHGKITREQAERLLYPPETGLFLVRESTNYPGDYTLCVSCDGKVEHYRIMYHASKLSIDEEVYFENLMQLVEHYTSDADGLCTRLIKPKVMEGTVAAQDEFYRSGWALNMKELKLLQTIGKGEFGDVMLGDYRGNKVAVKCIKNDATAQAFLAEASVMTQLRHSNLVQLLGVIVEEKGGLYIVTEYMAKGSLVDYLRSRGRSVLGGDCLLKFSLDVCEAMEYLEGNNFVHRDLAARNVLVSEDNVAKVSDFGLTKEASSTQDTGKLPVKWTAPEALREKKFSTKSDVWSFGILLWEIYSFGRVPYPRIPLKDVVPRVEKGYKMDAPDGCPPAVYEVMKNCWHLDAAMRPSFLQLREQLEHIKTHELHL
Chain of STLK5 (Q7RTN6 whole entry): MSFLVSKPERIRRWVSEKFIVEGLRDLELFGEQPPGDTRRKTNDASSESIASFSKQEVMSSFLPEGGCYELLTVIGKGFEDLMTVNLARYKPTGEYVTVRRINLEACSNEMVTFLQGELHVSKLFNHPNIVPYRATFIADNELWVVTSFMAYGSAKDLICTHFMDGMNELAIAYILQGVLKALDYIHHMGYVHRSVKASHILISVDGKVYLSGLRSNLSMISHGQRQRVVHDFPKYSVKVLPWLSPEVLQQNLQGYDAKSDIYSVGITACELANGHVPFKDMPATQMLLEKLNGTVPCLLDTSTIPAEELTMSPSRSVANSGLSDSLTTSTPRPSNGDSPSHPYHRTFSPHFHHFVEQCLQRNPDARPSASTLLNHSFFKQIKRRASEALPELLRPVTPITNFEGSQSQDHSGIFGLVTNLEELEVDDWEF
Chain of BTK (Q06187 whole entry, looked up): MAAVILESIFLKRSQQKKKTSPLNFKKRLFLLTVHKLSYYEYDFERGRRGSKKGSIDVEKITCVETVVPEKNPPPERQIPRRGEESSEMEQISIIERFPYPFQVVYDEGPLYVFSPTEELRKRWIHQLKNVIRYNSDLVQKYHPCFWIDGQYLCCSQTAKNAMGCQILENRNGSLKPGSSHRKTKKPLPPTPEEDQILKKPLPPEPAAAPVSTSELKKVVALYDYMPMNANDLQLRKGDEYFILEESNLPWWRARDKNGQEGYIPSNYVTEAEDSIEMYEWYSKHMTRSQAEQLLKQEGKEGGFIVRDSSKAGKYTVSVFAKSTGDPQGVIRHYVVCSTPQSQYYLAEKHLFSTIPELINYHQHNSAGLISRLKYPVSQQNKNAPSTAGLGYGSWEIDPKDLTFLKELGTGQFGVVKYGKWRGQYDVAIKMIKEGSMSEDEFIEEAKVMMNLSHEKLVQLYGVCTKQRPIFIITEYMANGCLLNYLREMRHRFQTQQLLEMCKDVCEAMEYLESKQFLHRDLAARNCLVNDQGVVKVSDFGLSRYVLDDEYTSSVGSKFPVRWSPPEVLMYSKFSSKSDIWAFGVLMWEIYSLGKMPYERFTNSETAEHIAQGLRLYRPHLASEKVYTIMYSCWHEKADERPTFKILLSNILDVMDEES
Chain of PI4KB (Q9UBF8 whole entry): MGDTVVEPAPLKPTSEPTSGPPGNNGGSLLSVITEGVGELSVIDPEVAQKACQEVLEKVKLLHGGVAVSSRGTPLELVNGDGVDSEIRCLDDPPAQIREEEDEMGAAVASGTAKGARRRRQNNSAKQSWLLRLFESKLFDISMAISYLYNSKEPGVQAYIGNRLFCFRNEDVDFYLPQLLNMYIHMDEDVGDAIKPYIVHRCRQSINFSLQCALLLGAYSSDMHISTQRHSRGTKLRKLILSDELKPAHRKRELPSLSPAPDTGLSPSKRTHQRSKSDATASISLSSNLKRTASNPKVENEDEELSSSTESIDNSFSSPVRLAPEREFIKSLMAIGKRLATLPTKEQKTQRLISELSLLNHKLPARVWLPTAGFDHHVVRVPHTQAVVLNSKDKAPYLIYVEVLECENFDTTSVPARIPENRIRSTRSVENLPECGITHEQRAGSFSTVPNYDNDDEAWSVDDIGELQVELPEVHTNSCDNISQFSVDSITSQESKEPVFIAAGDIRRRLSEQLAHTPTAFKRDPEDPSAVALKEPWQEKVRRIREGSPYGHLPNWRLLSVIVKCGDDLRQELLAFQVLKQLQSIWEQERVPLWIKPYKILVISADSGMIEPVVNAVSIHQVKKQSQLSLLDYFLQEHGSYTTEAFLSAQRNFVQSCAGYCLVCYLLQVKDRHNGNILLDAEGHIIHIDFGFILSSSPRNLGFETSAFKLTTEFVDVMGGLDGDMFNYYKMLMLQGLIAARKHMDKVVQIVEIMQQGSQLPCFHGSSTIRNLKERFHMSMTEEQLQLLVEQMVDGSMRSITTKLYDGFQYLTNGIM
Chain of TEC (P42680 whole entry): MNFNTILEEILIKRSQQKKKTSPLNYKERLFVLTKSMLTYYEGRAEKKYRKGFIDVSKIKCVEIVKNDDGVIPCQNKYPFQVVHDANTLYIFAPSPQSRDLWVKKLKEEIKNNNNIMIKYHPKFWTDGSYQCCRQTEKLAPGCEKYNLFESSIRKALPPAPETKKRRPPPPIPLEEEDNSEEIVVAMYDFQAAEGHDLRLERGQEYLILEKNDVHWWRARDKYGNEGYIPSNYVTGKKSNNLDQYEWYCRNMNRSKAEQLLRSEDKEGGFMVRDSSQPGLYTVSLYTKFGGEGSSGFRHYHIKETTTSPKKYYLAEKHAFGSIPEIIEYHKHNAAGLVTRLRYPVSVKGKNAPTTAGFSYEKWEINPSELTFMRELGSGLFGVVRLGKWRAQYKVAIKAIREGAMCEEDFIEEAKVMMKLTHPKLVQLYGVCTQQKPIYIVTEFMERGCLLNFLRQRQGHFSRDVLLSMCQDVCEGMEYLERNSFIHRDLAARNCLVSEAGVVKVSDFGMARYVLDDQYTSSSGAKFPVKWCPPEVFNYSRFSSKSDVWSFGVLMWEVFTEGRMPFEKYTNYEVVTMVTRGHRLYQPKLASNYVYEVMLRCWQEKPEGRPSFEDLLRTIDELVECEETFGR
Chain of NEK1 (Q96PY6 whole entry): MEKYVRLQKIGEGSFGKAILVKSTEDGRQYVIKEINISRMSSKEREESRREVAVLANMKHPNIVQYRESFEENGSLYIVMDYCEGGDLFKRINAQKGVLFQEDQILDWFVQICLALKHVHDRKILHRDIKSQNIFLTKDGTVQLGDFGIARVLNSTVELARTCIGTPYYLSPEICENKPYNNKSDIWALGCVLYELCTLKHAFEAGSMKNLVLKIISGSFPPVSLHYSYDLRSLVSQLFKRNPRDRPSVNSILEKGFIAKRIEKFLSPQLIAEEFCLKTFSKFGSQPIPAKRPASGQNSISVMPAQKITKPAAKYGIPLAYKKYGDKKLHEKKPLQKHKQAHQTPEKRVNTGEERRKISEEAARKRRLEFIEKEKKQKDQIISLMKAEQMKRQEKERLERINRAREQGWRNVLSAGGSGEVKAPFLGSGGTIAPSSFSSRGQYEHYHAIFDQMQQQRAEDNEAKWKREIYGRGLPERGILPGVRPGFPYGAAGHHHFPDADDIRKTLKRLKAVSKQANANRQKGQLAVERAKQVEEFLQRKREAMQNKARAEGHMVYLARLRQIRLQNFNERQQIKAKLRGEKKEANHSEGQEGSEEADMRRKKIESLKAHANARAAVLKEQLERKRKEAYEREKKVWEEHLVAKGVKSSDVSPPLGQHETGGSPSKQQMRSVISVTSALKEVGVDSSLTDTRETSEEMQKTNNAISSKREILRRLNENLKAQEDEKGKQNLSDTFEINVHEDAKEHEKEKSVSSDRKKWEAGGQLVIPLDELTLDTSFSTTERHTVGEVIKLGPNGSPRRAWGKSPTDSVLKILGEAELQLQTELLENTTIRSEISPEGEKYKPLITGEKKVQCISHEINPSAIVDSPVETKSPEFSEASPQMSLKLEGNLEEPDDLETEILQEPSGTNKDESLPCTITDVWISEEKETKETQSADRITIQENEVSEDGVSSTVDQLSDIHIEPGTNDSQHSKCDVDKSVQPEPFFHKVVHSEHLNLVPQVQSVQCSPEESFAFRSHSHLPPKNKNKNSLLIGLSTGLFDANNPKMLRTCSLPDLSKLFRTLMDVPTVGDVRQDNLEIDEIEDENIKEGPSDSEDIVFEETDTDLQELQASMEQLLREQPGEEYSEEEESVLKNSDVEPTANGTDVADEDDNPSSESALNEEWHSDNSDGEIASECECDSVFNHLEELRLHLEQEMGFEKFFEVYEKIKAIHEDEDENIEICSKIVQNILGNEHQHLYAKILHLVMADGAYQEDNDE
Chain of MAP2K7 (O14733 whole entry): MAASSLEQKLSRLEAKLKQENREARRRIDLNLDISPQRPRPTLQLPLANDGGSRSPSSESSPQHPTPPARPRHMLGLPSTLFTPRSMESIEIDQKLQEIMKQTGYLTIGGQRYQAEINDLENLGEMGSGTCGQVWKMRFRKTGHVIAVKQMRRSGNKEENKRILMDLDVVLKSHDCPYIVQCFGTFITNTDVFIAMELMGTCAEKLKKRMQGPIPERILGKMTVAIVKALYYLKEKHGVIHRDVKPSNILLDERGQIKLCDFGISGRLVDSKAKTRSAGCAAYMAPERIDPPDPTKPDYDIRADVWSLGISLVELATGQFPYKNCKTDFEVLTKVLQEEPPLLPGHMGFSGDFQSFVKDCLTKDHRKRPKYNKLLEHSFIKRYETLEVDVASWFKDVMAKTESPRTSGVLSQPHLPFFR

Compound: C=CC(=O)N1CCC(CNc2nccc(Nc3ncc(C(=O)Nc4c(C)cccc4C)s3)n2)C1 (racemic) [Example I-8]
- % change of MS signal compared to control sample (MAST1, MAST2): −32.5%
- % change of MS signal compared to control sample (CSK): 88.1% and 86.2%
- % change of MS signal compared to control sample (TEC): 79.5% and 71.1%
- % change of MS signal compared to control sample (BTK): 98.0% and >90%
- % change of MS signal compared to control sample (PKD2): 8.7%
- % change of MS signal compared to control sample (AurB): −14.3%
- % change of MS signal compared to control sample (SRPK1): −19.5%
- % change of MS signal compared to control sample (CDK9): −5.2%
- % change of MS signal compared to control sample (MAST3): −8.3%
- % change of MS signal compared to control sample (MST2): 4.3%
- % change of MS signal compared to control sample (PI4KB): 44.2% and 41.9%
- % change of MS signal compared to control sample (NEK6, NEK7): −11.0%
- % change of MS signal compared to control sample (LRRK2): −12.2%
- % change of MS signal compared to control sample (CK2a1): 13.9%
- % change of MS signal compared to control sample (CaMK2g): −9.4%
- % change of MS signal compared to control sample (TAK1): 9.7%
- % change of MS signal compared to control sample (MAP2K7): −7.5%
- % change of MS signal compared to control sample (YSK1): −29.2%
- % change of MS signal compared to control sample (RSK3): 2.9%
- % change of MS signal compared to control sample (ATR): −24.9%
- % change of MS signal compared to control sample (MARK3, MARK4): 5.8%
- % change of MS signal compared to control sample (PIK3CG): −55.4%
- % change of MS signal compared to control sample (NEK7): −1.0%
- % change of MS signal compared to control sample (SRPK1, SRPK2): 33.2%
- % change of MS signal compared to control sample (BRAF): 11.1%
- % change of MS signal compared to control sample (GSK3B): −10.7%
- % change of MS signal compared to control sample (CaMK1d): −14.1% and −8.7%
- % change of MS signal compared to control sample (RSK4 domain1): −8.2%
- % change of MS signal compared to control sample (Wnk1, Wnk2, Wnk4): −16.3%
- % change of MS signal compared to control sample (MAP3K6): −8.1%
- % change of MS signal compared to control sample (CK2a2): 27.5%
- % change of MS signal compared to control sample (TYK2 domain2): −44.6%
- % change of MS signal compared to control sample (LCK): 94.8%
- % change of MS signal compared to control sample (TLK2): 9.4%
- % change of MS signal compared to control sample (STLK5): 1.1% and −4.0%
- % change of MS signal compared to control sample (NLK): 6.1%
- % change of MS signal compared to control sample (MARK2): 12.1%
- % change of MS signal compared to control sample (NEK1): 12.8%
- % change of MS signal compared to control sample (MELK): −10.0%

Source: patent publication US10844077B2, “Thiazolyl-containing compounds for treating proliferative diseases” (Dana-Farber Cancer Institute, Inc., priority 2014, dated 2020)
